Four compounds from ChEMBL document CHEMBL1201862, “PubChem BioAssay data set” (2004) can be followed below.

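Cells were grown in 96-well plates and exposed to each compound for 48 hours at five concentrations; endpoints were interpolated linearly between bracketing concentrations, or set to the highest concentration if not reached. The concentration for 50% growth inhibition is given as GI50.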 The source made the active and inactive calls. Rule as the data show it: active = GI50 up to about 1.1 µM and inactive = higher. A value given as a limit tells only on which side of the number the result lay.

Assay in all cases: NCI tumour cell line growth inhibition, 48 h
In assay [1] the test system is KM-20L2.
Assay [2] concerns SNB-78.
For assay [3], the system named is DMS-273.
The subject of assay [4] is DLD-1.
Assay [5] concerns LXFL 529.
For assay [6], the system named is XF498.
In assay [7] the test system is HOP-18.
In assay [8] the test system is M19-MEL.
Assay [9] deals with RXF 631.

Take `CCOc1ccccc1NC(=O)CC1Sc2ccccc2NC1=O` (stereo unspecified): the GI50 in assay [1] is 57.7 µM (inactive); in assay [2], > 100 µM (inactive); in [3] it was 48.6 µM (inactive); in assay [4], 75.7 µM (inactive); in assay [5] it was 59.2 µM (inactive); in [6], 80.4 µM (inactive). Moreover, the figures for the GI50 in assay [7], in assay [8] and in assay [9] were 53.2 µM (inactive), 64.4 µM (inactive) and 58.5 µM (inactive), respectively.
For `CCOc1ccc(OCC)c([P+](c2ccccc2)(c2ccccc2)c2ccccc2)c1`, the GI50 in [1] was 0.333 µM (active); in assay [2], 0.895 µM (active); in [3] it was 0.236 µM (active); in assay [4], 0.548 µM (active); in assay [5] it was 0.198 µM (active); in assay [6], 0.0841 µM (active). Moreover, the GI50 is 0.721 µM (active) in assay [7], 0.4 µM (active) in assay [8] and 2.4 µM (inactive) in assay [9].
In the case of `Cc1nc2c(=O)n(C)c(=O)nc-2n(-c2ccc(Cl)cc2)c1C`, the GI50 in assay [1] was 46.7 µM (inactive); in assay [2], > 100 µM (inactive); in [3], > 100 µM (inactive); in [4], 85.9 µM (inactive); in assay [5], 62.7 µM (inactive); in assay [6] it was > 100 µM (inactive). Besides, the GI50 in assay [7], in [8] and in assay [9] was > 100 µM (inactive) in each case.
As to `COc1cccc(-n2c3nc(=O)n(C)c(=O)c-3nc3ccccc32)c1`, the GI50 is 4.83 µM (inactive) in [1]; 29.1 µM (inactive) in assay [2]; 6.95 µM (inactive) in assay [3]; 25.2 µM (inactive) in [4]; 21.6 µM (inactive) in assay [5]; 16.3 µM (inactive) in assay [6]. Moreover, the GI50 is 42.9 µM (inactive) in [7], 2.43 µM (inactive) in assay [8] and 19.1 µM (inactive) in assay [9].
